# “Also recorded” adds a separate entry of the source.
# Tests used:
# rat glioma C6 cells = experiment: C6 cell uptake of phosphonium cations determined by MALDI-TOF-MS; assay type: cell-based; settings: for cell uptake / accumulation (in words): up to 90 min; for percent cell uptake: plateau at ~90 minute after incubation
# Protocol: MALDI-TOF Mass Spectrometry: MALIDI-TOF-MS experiments were performed on a Perseptive Voyager-DE RP Biospectrometry instrument (Framingham, Mass.). On the MALDI-TOF-MS target plate, 1 μL each of sample solution and 1 μL of the matrix were mixed. […] For each analysis, the laser spot randomly hit the sample to generate an averaged MALDI-TOF-MS spectrum. Three spectra were produced for each sample, and analyte to internal standard response ratios were averaged.
# C6 cells (0.5×10^6/50 μL) were incubated with 10 μL 100 μM stock phosphonium salts solution (5 μM final concentration) and 140 μL HEPES buffer from 10 to 90 min at room temperature. The cells were centrifuged (250×g) for three minutes and washed twice with cold PBS buffer at specified times. Cell pellets were then lysed with 150 μL cold spectral grade water, followed by freezing in dry ice. Right before the MALDI-TOF-MS analysis, the frozen cell solution was thawed and centrifuged at 12000×g for 5 min. An aliquot of 90 μL of cell lysate and 10 μL of 10 μM internal standard MeTPP were mixed together, and 1 μL of solution was subjected to MALDI-TOF-MS analysis. Samples collected from three independent cell lysates were prepared for each study and subjected for MALDI-TOF-MS analysis.
# Then they were diluted with C6 cell lysate (0.5×10^6 cells per 150 μL, these cells were not incubated with any phosphonium compound prior to lysis) to make various concentrations of compound and stored at 0° C. One micromolar MeTPP in 10 μL volume, which was used as internal standard, and 10 μL phosphonium cations with concentrations ranging from 0.1 μM-1.5 μM were mixed together thoroughly. Subsequently, 1 μL aliquot and 1 μL matrix αCHCA were deposited on the target plate and dried for MALDI-TOF-MS analysis. Triplicate samples were prepared and analyzed.
# C6 cells [1] = experiment: Mitochondrial and plasma membrane potential dependent uptake in C6 cells (CCCP, valinomycin, high K+ HEPES buffer), MALDI-TOF-MS; assay type: cell-based, rat; settings: for decrease in uptake on depolarization of the plasma membrane (high K+ vs low K+ buffer): 90 min exposure time; for effect of CCCP on uptake: CCCP at 1 μM concentration; for nature of uptake (membrane potential dependence): C6 cells, CCCP, valinomycin, high K+ buffer
# Protocol: K^+-ionophore valinomycin was dissolved in ethanol and also diluted with low K^+ buffer. Final concentrations of ethanol and DMSO were below 0.1%. Varying concentrations of CCCP and valinomycin were added to the 0.5×10^6 cells in low K^+ HEPES buffer 30 min prior to the start of the experiment. […] The viability and the integrity of the cells after treatment with inhibitors and high K^+ buffer were examined using Trypan blue.
# C6 cells [2] = experiment: C6 cell uptake of 3H-TPP by scintillation counting; assay type: cell-based, rat; settings: 5 μM, 25° C., 90 min
# Protocol: Cell Uptake of ^3H-tetraphenylphosphonium (^3H-TPP): C6 cell uptake of ^3H-TPP was also performed for direct comparison with cell uptakes of TPP and FTPP determined through MALDI-TOF-MS. Briefly, 0.5×10^6 cells were incubated with 5 μM ^3H-TPP [^3H-TPP was spiked with TPP to make a final concentration of 12.21 GBq/mmol (0.33 Ci/mmol)] from 10 to 90 min in a 200 μL HEPES buffer at room temperature. Cell lysate was prepared using the same procedure as described in the Cell Uptake Studies of Phosphonium Cations section, and the radioactivity of cell lysate was counted. Triplicate samples were obtained for all uptake studies. Data were expressed as the accumulation of the amount of probe in each cell or percent cell uptake (fmols/cell, % cell uptake). ^3H analyses were performed with a Beckman LS-6500 liquid scintillation counter with Biosafe II scintillation fluid (Research Products International, Mount prospect, Ill.). The attenuation and quenching effects resulting from the cell lysate used in this experiment were determined to be negligible, and the disintegration per minute (dpm) was obtained by correcting for background activity and efficiency (69.3% for ^3H).
compound,measurement,setting,value
"Cl.[Cl-].c1ccc([P+](Cc2ccccn2)(c2ccccc2)c2ccccc2)cc1 [PyTPP, triphenyl(2-pyridylmethyl)phosphonium chloride hydrochloride]",uptake compared with tetraphenylphosphonium analogs (TPP and FTPP),"rat glioma C6 cells; 5 μM, C6 cells",much lower uptake
"CCCC[P+](c1ccccc1)(c1ccccc1)c1ccccc1.[Cl-] [BuTPP, butyltriphenylphosphonium chloride]",uptake compared with tetraphenylphosphonium analogs (TPP and FTPP),"rat glioma C6 cells; 5 μM, C6 cells",much lower uptake
"CCCC[P+](CCCC)(CCCC)CCCC.[Br-] [TBuP, tetrabutylphosphonium bromide]",decreased cellular accumulation compared to TPP,"rat glioma C6 cells; 5 μM, C6 cells",~18 fold
same,cell uptake / accumulation (in words),"rat glioma C6 cells; 5 μM, C6 cells",lower cell uptake
same,cell uptake / accumulation (in words),"rat glioma C6 cells; 5 μM, C6 cells, listed as TBuPP",very low cell accumulaiton
"BrCCCC[P+](c1ccccc1)(c1ccccc1)c1ccccc1.[Br-] [BrTPP, (4-bromobutyl) triphenyl-phosphine bromide]",uptake compared with tetraphenylphosphonium analogs (TPP and FTPP),"rat glioma C6 cells; 5 μM, C6 cells",much lower uptake
"O=C(O)CCCC[P+](c1ccccc1)(c1ccccc1)c1ccccc1.[Br-] [CoTPP, (4-carboxybutyl)triphenyl-phosphonium bromide]",cell uptake / accumulation (in words),"rat glioma C6 cells; 5 μM, C6 cells",either does not accumulate or accumulates minimally
same,detection of compound in cell lysate by MALDI-TOF-MS,rat glioma C6 cells; C6 cell lysate after incubation with compound,could not be identified
"Fc1ccc([P+](c2ccccc2)(c2ccccc2)c2ccccc2)cc1 [FTPP, 4-Fluorophenyltriphenyl phosphonium]",accumulation relative to MeTPP,"rat glioma C6 cells; 5 μM, C6 cell culture",8 times
same,cell uptake relative to that of TPP,"rat glioma C6 cells; 5 μM, C6 cells",over 80%
same,percent cell uptake,"rat glioma C6 cells; 5 μM, C6 cells",9.33%
same,cell uptake / accumulation (in words),"rat glioma C6 cells; 5 μM, C6 cells",good cell uptake; also recorded: higher C6 cell uptake than both F4TPP and FBnTP
same,normalized uptake in presence of valinomycin,"C6 cells [1]; 5 μM probe, 10 μM valinomycin, low K+ HEPES buffer, one hour incubation",about 72.8±3.6%
same,normalized uptake in presence of CCCP,"C6 cells [1]; 5 μM probe, 50 μM CCCP, low K+ HEPES buffer, one hour incubation",about 27.3±2.3%
same,decrease in uptake on depolarization of the plasma membrane (high K+ vs low K+ buffer),C6 cells [1]; 5 μM probe,3.5 fold
same,effect of CCCP on uptake,C6 cells [1]; 5 μM probe,significantly inhibited
same,effect of valinomycin on uptake,"C6 cells [1]; 5 μM probe, valinomycin at 1 μM concentration",significantly inhibited
same,nature of uptake (membrane potential dependence),C6 cells [1],electrogenic and driven by the plasma and mitochondrial membrane potentials
"[Br-].c1ccc([P+](c2ccccc2)(c2ccccc2)c2ccccc2)cc1 [TPP, tetraphenylphosphonium bromide, reference compound]",amount accumulated per cell,"rat glioma C6 cells; 5 μM, 10 mins post incubation",0.11 fmol TPP per cell
same,incubation time to maximum / steady-state uptake,"rat glioma C6 cells; 5 μM, C6 cells",60 min
same,percent cell uptake,"rat glioma C6 cells; 5 μM, C6 cells",11.44%
"Fc1ccc([P+](c2ccc(F)cc2)(c2ccc(F)cc2)c2ccc(F)cc2)cc1.[I-] [F4TPP, Tetra-4-fluorophenylphosphonium iodide]",decrease in uptake on depolarization of the plasma membrane (high K+ vs low K+ buffer),C6 cells [1]; 5 μM probe,3.0 fold
same,effect of CCCP on uptake,C6 cells [1]; 5 μM probe,can also be inhibited
same,nature of uptake (membrane potential dependence),C6 cells [1],electrogenic and driven by the plasma and mitochondrial membrane potentials
^3H-tetraphenylphosphonium [^3H-TPP],time course of uptake by scintillation counting compared with MALDI-TOF-MS of TPP,C6 cells [2],almost identical pattern and the same levels of uptake
"C[P+](c1ccccc1)(c1ccccc1)c1ccccc1.[Br-] [MeTPP, methyltriphenyl phosphonium bromide, reference compound]",percent cell uptake,"rat glioma C6 cells; 5 μM, C6 cells",1.06%
"Fc1ccc(C[P+](c2ccccc2)(c2ccccc2)c2ccccc2)cc1.[I-] [FBnTP, 4-fluorobenzyl-triphenylphosphonium iodide]",uptake compared with tetraphenylphosphonium analogs (TPP and FTPP),"rat glioma C6 cells; 5 μM, C6 cells",much lower uptake
same,decrease in uptake on depolarization of the plasma membrane (high K+ vs low K+ buffer),C6 cells [1]; 5 μM probe,1.5 fold
same,effect of CCCP on uptake,C6 cells [1]; 5 μM probe,can also be inhibited
same,nature of uptake (membrane potential dependence),C6 cells [1],electrogenic and driven by the plasma and mitochondrial membrane potentials
